19 compounds from patent US10023558B2, “Compounds” (CHIESI FARMACEUTICI S.P.A., priority 2016, dated 2018) can be followed below.

The IC50 is the concentration that inhibits the measured activity by half.

The assay has as its target T1, human neutrophil elastase (HNE) (Homo sapiens, UniProt P08246).
T1 construct: purchased Sigma E8140
T1 sequence (P08246 30-247 limits assumed): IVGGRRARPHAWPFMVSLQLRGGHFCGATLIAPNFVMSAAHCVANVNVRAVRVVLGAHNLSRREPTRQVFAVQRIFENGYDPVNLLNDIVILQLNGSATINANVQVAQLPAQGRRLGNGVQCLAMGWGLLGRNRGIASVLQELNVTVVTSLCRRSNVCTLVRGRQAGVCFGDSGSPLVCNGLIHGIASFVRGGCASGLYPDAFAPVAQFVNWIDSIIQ
The experiment in a line: HNE Enzyme Assay (fluorogenic peptide substrate MeOSuc-Ala-Ala-Pro-Val-AMC). In kind it is biochemical. Conditions: human leukocyte elastase 0.00072 U/mL, substrate 100 μM, 25° C., 30 minutes, at least two separate experiments; read-out: HNE inhibition (IC50 values). The procedure, abridged: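 Human leukocyte elastase (0.00072 U/mL) with 100 μM MeOSuc-AAPV-AMC in Tris pH 7.5 buffer with NaCl, CaCl2, Brij-35, 1% DMSO, 30 min at 25° C, stopped with soybean trypsin inhibitor. AMC fluorescence (ex 380/em 460 nm); IC50 from concentration-response as % inhibition of control, at least two experiments.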

As for `Cc1c(-c2ccnn2-c2ccc(C#N)cc2)n(C(=O)N[C@@H](C)C(=O)N2CCC([N+](C)(C)Cc3ccccc3)CC2)c(=O)n1-c1cccc(C(F)(F)F)c1` [Example 70, Benzyl-[1-((S)-2-{[5-[2-(4-cyano-phenyl)-2H-pyrazol-3-yl]-4-methyl-2-oxo-3-(3-trifluoromethyl-phenyl)-2,3-dihydro-imidazole-1-carbonyl]-amino}-propionyl)-piperidin-4-yl]-dimethyl-ammonium bromide], the IC50 is under 1 nM.
`Cc1c(-c2ccnn2-c2ccc(C#N)cc2)n(C(=O)N[C@H]2CC[C@@H]([N+](C)(C)Cc3ccccc3)CC2)c(=O)n1-c1cccc(C(F)(F)F)c1` [Example 46, Benzyl-(cis-4-{[5-[2-(4-cyano-phenyl)-2H-pyrazol-3-yl]-4-methyl-2-oxo-3-(3-trifluoromethyl-phenyl)-2,3-dihydro-imidazole-1-carbonyl]-amino}-cyclohexyl)-dimethyl-ammonium bromide]: the IC50 lay in the range of 1 to 10 nM.
As for `Cc1c(-c2ccnn2-c2ccc(C#N)cc2)n(C(=O)N[C@H]2CC[C@H](C[N+](C)(C)C)CC2)c(=O)n1-c1cccc(C(F)(F)F)c1` [Example 29, (Trans-4-{[5-[2-(4-cyano-phenyl)-2H-pyrazol-3-yl]-4-methyl-2-oxo-3-(3-trifluoromethyl-phenyl)-2,3-dihydro-imidazole-1-carbonyl]-amino}-cyclohexylmethyl)-trimethyl-ammonium benzene sulfonate], the IC50 is under 1 nM.
With `Cc1c(-c2ccnn2-c2ccc(C#N)cc2)n(C(=O)NC2CC[N+](C)(C)CC2)c(=O)n1-c1cccc(C(F)(F)F)c1` [Example 32, 4-{[5-[2-(4-Cyano-phenyl)-2H-pyrazol-3-yl]-4-methyl-2-oxo-3-(3-trifluoromethyl-phenyl)-2,3-dihydro-imidazole-1-carbonyl]-amino}-1,1-dimethyl-piperidinium benzenesulfonate], the IC50 was under 1 nM.
The result for `Cc1c(-c2ccnn2-c2ccc(C#N)cc2)n(C(=O)NC2CCN(C(=O)C(F)(F)F)CC2)c(=O)n1-c1cccc(C(F)(F)F)c1` [Example 4, 5-[2-(4-Cyano-phenyl)-2H-pyrazol-3-yl]-4-methyl-2-oxo-3-(3-trifluoromethyl-phenyl)-2,3-dihydro-imidazole-1-carboxylic acid [1-(2,2,2-trifluoro-acetyl)-piperidin-4-yl]-amide] reads under 1 nM; that for `Cc1c(-c2ccnn2-c2ccc(C#N)cc2)n(C(=O)N[C@H]2C[C@@H]3CN(C(=O)OC(C)(C)C)C[C@@H]3C2)c(=O)n1-c1cccc(C(F)(F)F)c1` [Example 12, (3aR,5S,6aS)-5-{[5-[2-(4-Cyano-phenyl)-2H-pyrazol-3-yl]-4-methyl-2-oxo-3-(3-trifluoromethyl-phenyl)-2,3-dihydro-imidazole-1-carbonyl]-amino}-hexahydro-cyclopenta[c]pyrrole-2-carboxylic acid tert-butyl ester], under 1 nM; that for `Cc1cc(C[N+](C)(C)[C@H]2CC[C@H](NC(=O)n3c(-c4ccnn4-c4ccc(C#N)cc4)c(C)n(-c4cccc(C(F)(F)F)c4)c3=O)CC2)no1` [Example 75, (4-{[5-[2-(4-Cyano-phenyl)-2H-pyrazol-3-yl]-4-methyl-2-oxo-3-(3-trifluoromethyl-phenyl)-2,3-dihydro-imidazole-1-carbonyl]-amino}-cyclohexyl)-dimethyl-(5-methyl-isoxazol-3-ylmethyl)-ammonium chloride], under 1 nM.
As for `Cc1c(-c2ccnn2-c2ccc(C#N)cc2)n(C(=O)N[C@@H](C)C(=O)NC2CCN(C)CC2)c(=O)n1-c1cccc(C(F)(F)F)c1` [Example 13, 5-[2-(4-Cyano-phenyl)-2H-pyrazol-3-yl]-4-methyl-2-oxo-3-(3-trifluoromethyl-phenyl)-2,3-dihydro-imidazole-1-carboxylic acid [(S)-1-(1-methyl-piperidin-4-ylcarbamoyl)-ethyl]-amide], the 50% inhibitory concentration (IC50) was under 1 nM.
With `Cc1c(-c2ccnn2-c2ccc(C#N)cc2)n(C(=O)NC(C)(C)c2cc[n+](C)cc2)c(=O)n1-c1cccc(C(F)(F)F)c1` [Example 47, 4-(1-{[5-[2-(4-Cyano-phenyl)-2H-pyrazol-3-yl]-4-methyl-2-oxo-3-(3-trifluoromethyl-phenyl)-2,3-dihydro-imidazole-1-carbonyl]-amino}-1-methyl-ethyl)-1-methyl-pyridinium benzene sulfonate] the figure was under 1 nM.
The result for `Cc1c(-c2ccnn2-c2ccc(C#N)cc2)n(C(=O)NC2CCN(C(=O)NCC[N+](C)(C)C)CC2)c(=O)n1-c1cccc(C(F)(F)F)c1` [Example 92, {2-[(4-{[5-[2-(4-Cyano-phenyl)-2H-pyrazol-3-yl]-4-methyl-2-oxo-3-(3-trifluoromethyl-phenyl)-2,3-dihydro-imidazole-1-carbonyl]-amino}-piperidine-1-carbonyl)-amino]-ethyl}-trimethyl-ammonium benzene sulfonate] reads under 1 nM; that for `Cc1c(-c2ccnn2-c2ccc(C#N)cc2)n(C(=O)N[C@H]2CC[C@@H](C(=O)NCC[N+](C)(C)C)CC2)c(=O)n1-c1cccc(C(F)(F)F)c1` [Example 80, {2-[(Cis-4-{[5-[2-(4-cyano-phenyl)-2H-pyrazol-3-yl]-4-methyl-2-oxo-3-(3-trifluoromethyl-phenyl)-2,3-dihydro-imidazole-1-carbonyl]-amino}-cyclohexanecarbonyl)-amino]-ethyl}-trimethyl-ammonium benzene sulfonate], 1 to 10 nM.
The result for `CC[N+](C)(C)[C@H]1CC[C@H](NC(=O)n2c(-c3ccnn3-c3ccc(C#N)cc3)c(C)n(-c3cccc(C(F)(F)F)c3)c2=O)CC1` [Example 44, (Trans-4-{[5-[2-(4-cyano-phenyl)-2H-pyrazol-3-yl]-4-methyl-2-oxo-3-(3-trifluoromethyl-phenyl)-2,3-dihydro-imidazole-1-carbonyl]-amino}-cyclohexyl)-ethyl-dimethyl-ammonium benzene sulfonate] reads under 1 nM.
As to `COc1ccc(CN2CC3C(C2)C3NC(=O)n2c(-c3ccnn3-c3ccc(C#N)cc3)c(C)n(-c3cccc(C(F)(F)F)c3)c2=O)cc1` (stereo not shown) [Example 7, 5-[2-(4-Cyano-phenyl)-2H-pyrazol-3-yl]-4-methyl-2-oxo-3-(3-trifluoromethyl-phenyl)-2,3-dihydro-imidazole-1-carboxylic acid [3-(4-methoxy-benzyl)-3-aza-bicyclo[3.1.0]hex-6-yl]-amide], the IC50 is under 1 nM.
With `Cc1c(-c2ccnn2-c2ccc(C#N)cc2)n(C(=O)N[C@@H](C)C(=O)N(C)C2CC[N+](C)(C)CC2)c(=O)n1-c1cccc(C(F)(F)F)c1` [Example 91, 4-[((S)-2-{[5-[2-(4-Cyano-phenyl)-2H-pyrazol-3-yl]-4-methyl-2-oxo-3-(3-trifluoromethyl-phenyl)-2,3-dihydro-imidazole-1-carbonyl]-amino}-propionyl)-methyl-amino]-1,1-dimethyl-piperidinium benzene sulfonate] the figure was under 1 nM; with `Cc1c(-c2ccnn2-c2ccc(C#N)cc2)n(C(=O)N[C@H]2CC[C@H](C(=O)NCC[N+](C)(C)C)CC2)c(=O)n1-c1cccc(C(F)(F)F)c1` [Example 77, {2-[(Trans-4-{[5-[2-(4-cyano-phenyl)-2H-pyrazol-3-yl]-4-methyl-2-oxo-3-(3-trifluoromethyl-phenyl)-2,3-dihydro-imidazole-1-carbonyl]-amino}-cyclohexanecarbonyl)-amino]-ethyl}-trimethyl-ammonium benzene sulfonate], under 1 nM.
Regarding `Cc1c(-c2ccnn2-c2ccc(C#N)cc2)n(C(=O)NC2CCN(C(=O)CCN(C)C)CC2)c(=O)n1-c1cccc(C(F)(F)F)c1` [Example 15, 5-[2-(4-Cyano-phenyl)-2H-pyrazol-3-yl]-4-methyl-2-oxo-3-(3-trifluoromethyl-phenyl)-2,3-dihydro-imidazole-1-carboxylic acid [1-(3-dimethylamino-propionyl)-piperidin-4-yl]-amide], the IC50 was under 1 nM.
With `CC[N+](C)(C)C[C@H]1CC[C@@H](NC(=O)n2c(-c3ccnn3-c3ccc(C#N)cc3)c(C)n(-c3cccc(C(F)(F)F)c3)c2=O)CC1` [Example 55, (Cis-4-{[5-[2-(4-cyano-phenyl)-2H-pyrazol-3-yl]-4-methyl-2-oxo-3-(3-trifluoromethyl-phenyl)-2,3-dihydro-imidazole-1-carbonyl]-amino}-cyclohexylmethyl)-ethyl-dimethyl-ammonium benzene sulfonate] the figure was 1 to 10 nM; with `CC[C@H](NC(=O)n1c(-c2ccnn2-c2ccc(C#N)cc2)c(C)n(-c2cccc(C(F)(F)F)c2)c1=O)c1ncc(CN(C)C)o1` [Example 22, 5-[2-(4-Cyano-phenyl)-2H-pyrazol-3-yl]-4-methyl-2-oxo-3-(3-trifluoromethyl-phenyl)-2,3-dihydro-imidazole-1-carboxylic acid [(S)-1-(5-dimethylaminomethyl-oxazol-2-yl)-propyl]-amide], under 1 nM; with `Cc1c(-c2ccnn2-c2ccc(C#N)cc2)n(C(=O)N[C@H]2CC[C@H](C(=O)N3CCC([N+](C)(C)C)CC3)CC2)c(=O)n1-c1cccc(C(F)(F)F)c1` [Example 88, [1-(Trans-4-{[5-[2-(4-cyano-phenyl)-2H-pyrazol-3-yl]-4-methyl-2-oxo-3-(3-trifiuoromethyl-phenyl)-2,3-dihydro-imidazole-1-carbonyl]-amino}-cyclohexanecarbonyl)-piperidin-4-yl]-trimethyl-ammonium benzene sulfonate], under 1 nM.
